The source of these data is patent publication US20190345138A1, “HETEROCYCLIC AMIDES AS KINASE INHIBITORS” (GlaxoSmithKline Intellectual Property Development Limited, priority 2016, published 2019).

One test deals with B16BL6 (melanoma). Briefly: syngeneic subcutaneous tumor model B16BL6. The test is classed as in vivo, mouse. As to conditions: RIP1i = Example 78 40 mg/kg p.o. BID, alone or with anti-PD1. The method, then: (§1) The efficacy of RIP1 inhibition was tested in 12 different murine (6-8 week old) syngeneic subcutaenous tumor models. RIP1 inhibition was tested as a single agent in all models, with anti-PD1 combination arms added to the five of the final models.
(§2) T and C are the mean tumor volume of the treated and control groups, respectively, on a given day. • 2) Tumor and plasma collection at study end for further investigation.
(§3) The 12 syngenic cell lines were maintained in vitro with different medium (indicated in Table C) at 37° C. in an atmosphere of 5% CO2 in air. The tumor cells were routinely subcultured twice weekly. The cells in an exponential growth phase were harvested and counted for tumor inoculation.
(§4) Each mouse was inoculated subcutaneously with tumor cells in 0.1 mL of PBS for tumor development. The treatments were started when the mean tumor size reached approximately 80-120 mm^3 (around 100 mm^3).

The test system of a further test is db/db mice. Briefly: glucose homeostasis in db/db mice. The format is in vivo, mouse. As to conditions: 100 mg/kg/day in chow. An excerpt:
We therefore investigated the ability of our small molecule RIPK1 inhibitor to improve glucose homeostasis in a diabetic animal model. Mice genetically deficient for the leptin receptor (db/db mice; Jackson Labs, BKS.Cg-Dock7m+/+Leprdb/J) are a widely used animal model of insulin resistance and diabetes. In our study, 4-week old male db/db mice were acclimated for a period of one week. At this point, when the mice were 5 weeks of age, the study was started. Mice were then divided into two group (n=10/group) and baseline measurements of non-fasted blood glucoses (using a glucometer) and body weight were taken. After baseline measurements, one group of mice was fed chow containing RIPK1 inhibitor (100 mg/kg/day, n=10) and the other remained on normal chow (n=10). Animals remained on these diets for 6 weeks. Additional measurements of non-fasted blood glucose and body weight were taken 2 and 4 weeks after study start. At week 8, mice were fasted overnight (16 hours) and fasted blood glucose and body weight were measured on the following day.

The subject of test [1] is Diet-induced obese, male mice C57Bl/6J. The test is described as follows: obesity, high fat diet-fed mice. The format is in vivo, mouse. The text has this:
Inflammation is known to be a contributing factor in the pathogenesis of diabetes and obesity (Chen. et. al., International Journal of Endocrinology (2015)). We therefore explored the effect of blocking RIPK1 kinase activity on body weight in mice made obese by chronic feeding of a high fat diet (HFD). Diet-induced obese, male mice C57Bl/6J (Jackson Labs Stock#380050) arrived at 22 weeks of age, with average body weight of 40 g and acclimated for one week and maintained on HFD. Mice were then acclimated to oral gavage with water for 7 days before study start. Thereafter mice received RIPK 1 inhibitor (50 mg/kg, bid, n=9) or vehicle (bid, n=9) for 19 days. Food intake was measured twice weekly and body weight was measured daily throughout the study.

The next test relates to Renca (renal). Briefly: syngeneic subcutaneous tumor model Renca. The format is in vivo, mouse. As to conditions: RIP1i = Example 78 40 mg/kg p.o. BID x up to 21 days. The method, then:
as §1, §2, §3, §4

The subject of another test is CT26 (colon). Briefly: syngeneic subcutaneous tumor model CT-26. The format is in vivo, mouse. As to conditions: RIP1i = Example 78 40 mg/kg p.o. BID x up to 21 days. As for the experimental part: as §1, §2, §3, §4
The test system of the next test is LL/2 (Lewis lung). Briefly: syngeneic subcutaneous tumor model LL/2. As to conditions: RIP1i = Example 78 40 mg/kg p.o. BID x up to 21 days. The test is classed as in vivo, mouse. As for the experimental part:
as §1, §2, §3, §4

For test [2], the system named is Sharpin-deficient mice (cpdm). The test is described as follows: Sharpin-deficient mouse model of TNF-dependent dermatitis. The test is classed as in vivo. As to conditions: food-based 100 or 10 mg/kg/day. As for the experimental part:
Sharpin-deficient mice (cpdm) develop a spontaneous and severe TNF- and RIPK1-dependent dermatitis and multi-organ immunopathology around 6-8 weeks of age (S. B. Berger et al., Journal of Immunology, 192(12):5476-5480, (2014)). Mice were dosed with RIP1 inhibitors at the time of weaning (3-4 weeks of age) prior to the development of dermatitis lesions or therapeutically after the development of dermatitis lesions (about 6 weeks of age) using a food-based dosing regimen, such that mice (4-7 mice per group) received on average 100 mg/kg/day or 10 mg/kg/day of RIP1 inhibitor in diet or control diet. […] The character of the lesion was categorized according the following, in order of increasing severity, 0=none, 1=excoriation only or one small punctuated crust (≤2 mm), 2=multiple, small punctuate crusts or coalescing crust (>2 mm), 3=erosion or ulceration. The regions were identified as: Region 1: the head cranial to the medial pinna attachment and/or lesions affecting the mandible cranial to the sternum, Region 2: inner and outer pinna, dorsal cervical region caudal to the medial pinna attachment, dorsal and ventral thorax, and thoracic limbs, Region 3: any region caudal to the ribcage. A score for the regions affected was categorized per the following: 0=none; 1=Region 2 or 3; 2=Region 2 and 3; 3=Region 1+/−other affected regions. […]

The next test concerns EMT-6 (breast). Briefly: syngeneic subcutaneous tumor model EMT-6. The test is classed as in vivo, mouse. As to conditions: RIP1i = Example 78 40 mg/kg p.o. BID x up to 21 days. As for the experimental part:
as §1, §2, §3, §4

Another test concerns B16F10 (melanoma). The test is described as follows: syngeneic subcutaneous tumor model B16F10. The format is in vivo, mouse. As to conditions: RIP1i = Example 78 40 mg/kg p.o. BID x up to 21 days. As for the experimental part: as §1, §2, §3, §4
In a further test the test system is MBT2 (bladder). Briefly: syngeneic subcutaneous tumor model MBT2. The test is classed as in vivo, mouse. As to conditions: RIP1i = Example 78 40 mg/kg p.o. BID, alone or with anti-PD1. As for the experimental part: as §1, §2, §3, §4
The subject of a further test is A20 (B lymphoma). The test is described as follows: syngeneic subcutaneous tumor model A20. The test is classed as in vivo, mouse. As to conditions: RIP1i = Example 78 40 mg/kg p.o. BID x up to 21 days. As for the experimental part:
as §1, §2, §3, §4

The subject of the next test is RM-1(prostate). The test is described as follows: syngeneic subcutaneous tumor model RM-1. The test is classed as in vivo, mouse. As to conditions: RIP1i = Example 78 40 mg/kg p.o. BID, alone or with anti-PD1. The method, then: as §1, §2, §3, §4
Another test concerns Pan02 (pancreatic). Briefly: syngeneic subcutaneous tumor model Pan02. As to conditions: Pan02, PG21; RIP1i = Example 78 40 mg/kg p.o. BID, alone or with anti-PD1. The test is classed as in vivo, mouse. As for the experimental part:
as §1, §2, §3, §4

The test system of a further test is MC38 (colon). The test is described as follows: syngeneic subcutaneous tumor model MC38. The format is in vivo, mouse. As to conditions: RIP1i = Example 78 40 mg/kg p.o. BID, alone or with anti-PD1. As for the experimental part:
as §1, §2, §3, §4

The test system of another test is H22 (hepatoma). Briefly: syngeneic subcutaneous tumor model H-22. The format is in vivo, mouse. As to conditions: RIP1i = Example 78 40 mg/kg p.o. BID x up to 21 days. The method, then: as §1, §2, §3, §4

Entries after “also recorded” stand apart in the source; their conditions may differ.

On to `N#Cc1cc(N2CCC(C(=O)N3N=CC[C@H]3c3cc(F)cc(F)c3)CC2)ncn1` [Example 78, (S)-6-(4-(5-(3,5-difluorophenyl)-4,5-dihydro-1H-pyrazole-1-carbonyl)piperidin-1-yl)pyrimidine-4-carbonitrile], for which the “Mean tumor growth inhibition (TGI) at model termination” value in the test with B16BL6 (melanoma) is given as 16%; in the test on Renca (renal) it was 19%; with CT26 (colon) it was 19%; with LL/2 (Lewis lung), 22%; in the test with EMT-6 (breast), 21%; with B16F10 (melanoma), 20%. The “Mean tumor growth inhibition (TGI) at model termination” value in the test with MBT2 (bladder) is −4%; in the test with A20 (B lymphoma), 0.6%; in the test with RM-1(prostate), −8%; in the test on Pan02 (pancreatic), “PG21: 46%”; with MC38 (colon) it was −16%; in the test with H22 (hepatoma), 19%. Further, the fasted blood glucose entry with db/db mice (week 8, fasted overnight (16 hours), versus normal chow) was “improves fasted blood glucose; also recorded: significantly lower”. For the same molecule, the “non-fasted (fed) blood glucose” value with db/db mice (weeks 2 and 4, versus normal chow) is “improves fed blood glucose over time; also recorded: Reduced non-fasted blood glucose at weeks 2 and 4”. Besides, the body weight entry in [1] (50 mg/kg bid PO for 19 days, versus vehicle) was “did not gain weight”. Besides, the food intake entry in test [1] (50 mg/kg bid PO, day 2 and day 5, versus vehicle) is listed as “initially reduced their food intake”. Also, the “development of severe dermatitis” value in test [2] (pre-dosing from weaning (3-4 weeks of age)) is on record as “complete protection from the development of severe dermatitis”. The established dermatitis result in [2] (therapeutic dosing after development of lesions (about 6 weeks of age)) is reported as “rescued established dermatitis”.
